Structures can show the parent of a compound that is named as a salt. Where two headings read alike, the source gives them in different places.
Tests used:
[1] = target: T1, α-1b adrenoreceptor (Mesocricetus auratus, UniProt P18841); assay: biochemical; type: binding, hamster; conditions: read-out: Radioligand Binding (Ki, nM) 1b (Hamster)
T1 sequence (P18841 1-515): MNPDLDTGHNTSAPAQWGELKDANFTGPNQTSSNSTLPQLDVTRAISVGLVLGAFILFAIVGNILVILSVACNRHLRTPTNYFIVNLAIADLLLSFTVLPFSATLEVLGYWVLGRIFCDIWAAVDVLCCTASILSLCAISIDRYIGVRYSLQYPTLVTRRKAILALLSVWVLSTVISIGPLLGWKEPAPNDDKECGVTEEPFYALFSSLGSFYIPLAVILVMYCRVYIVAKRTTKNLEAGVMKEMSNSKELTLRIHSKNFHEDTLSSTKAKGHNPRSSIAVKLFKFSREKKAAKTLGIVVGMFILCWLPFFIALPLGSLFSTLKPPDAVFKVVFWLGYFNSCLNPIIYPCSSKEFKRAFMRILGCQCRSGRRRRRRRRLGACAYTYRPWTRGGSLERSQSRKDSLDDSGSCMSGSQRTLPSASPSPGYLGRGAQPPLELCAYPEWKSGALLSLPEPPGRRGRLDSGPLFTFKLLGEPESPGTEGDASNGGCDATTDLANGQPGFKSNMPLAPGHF
Outline: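 Radioactivity counted by liquid scintillation after radioligand binding to membranes. Receptors: cloned α-1a, α-1b, α-1d stably expressed in LTK mouse fibroblasts (G418 selection, SV40 early promoter); rat submaxillary gland membranes for pharmacologically defined α-1A.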

[2] = target: T2, α-1A adrenoreceptor (Rattus norvegicus, UniProt P43140); assay: cell-based; conditions: phenylephrine-induced contraction; Schild plot; read-out: In Vitro Characterization (pA2) Rat Vas (converted)
T2 sequence (P43140 1-466): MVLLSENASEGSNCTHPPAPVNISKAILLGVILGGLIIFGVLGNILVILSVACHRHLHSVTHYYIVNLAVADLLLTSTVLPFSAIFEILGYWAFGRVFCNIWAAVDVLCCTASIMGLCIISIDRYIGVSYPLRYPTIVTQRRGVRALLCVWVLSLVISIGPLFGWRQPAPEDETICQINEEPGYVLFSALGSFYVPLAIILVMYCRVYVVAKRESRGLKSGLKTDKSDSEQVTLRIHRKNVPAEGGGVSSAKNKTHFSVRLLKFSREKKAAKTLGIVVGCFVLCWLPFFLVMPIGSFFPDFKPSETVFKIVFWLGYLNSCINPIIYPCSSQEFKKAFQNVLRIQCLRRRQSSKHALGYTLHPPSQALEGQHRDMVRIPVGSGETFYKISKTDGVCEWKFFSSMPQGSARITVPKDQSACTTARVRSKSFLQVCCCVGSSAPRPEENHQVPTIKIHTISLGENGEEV
Outline: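 Phenylephrine dose-response curves for contraction were repeated against increasing test-agent concentrations. pA2 was derived by Schild plot [[…] vs log molarity of test agent].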

[3] = [3H]-prazosin radioligand, cloned receptor in LTK cell membranes

Compound: COc1ccc2c(n1)sc1c(=O)n(CCCCN3C[C@H]4COc5cccc(OC)c5[C@@H]4C3)c(=O)[nH]c12 [Example 46, 3-[4-((3aS,9bR)-trans-9-Methoxy-1,2,3,3a,4,9b-hexahydro-[1]-benzopyrano[3,4-c]pyrrol-2-yl)butyl]-7-methoxy-pyrido[3',2':4,5]thieno[3,2-d]pyrimidine-2,4(1H,3H)-dione hydrochloride]
- Ki [1, 3]: 2.58 nM
- Kb [2]: 0.162 nM

Compound: COc1cccc2c1[C@@H]1CN(CCCCn3c(=O)[nH]c4c(sc5c(OC)ccnc54)c3=O)C[C@H]1CO2 [Example 17, 3-[4-((3aS,9bR)-trans-9-Methoxy-1,2,3,3a,4,9b-hexahydro-[1]-benzopyrano[3,4-c]pyrrol-2-yl)butyl]-6-methoxy-pyrido[2',3':4,5]thieno[3,2-d]pyrimidine-2,4(1H,3H)-dione dihydrochloride]
- Ki [1, 3]: 1.25 nM
- Kb [2]: 0.112 nM

Compound: COc1cccc2c1[C@@H]1CN(CCCCn3c(=O)[nH]c4c(sc5cnccc54)c3=O)C[C@@H]1CO2 [Example 29, 3-[4-((3aR,9bR)-cis-9-Methoxy-1,2,3,3a,4,9b-hexahydro-[1]-benzopyrano[3,4-c]pyrrol-2-yl)butyl]-pyrido[4',3':4,5]thieno[3,2-d]pyrimidine-2,4(1H,3H)-dione dihydrochloride]
- Ki [1, 3]: 3.69 nM
- Kb [2]: 0.437 nM

Compound: COc1cccc2c1[C@@H]1CN(CCCCn3c(=O)[nH]c4c(sc5cc(Cl)cnc54)c3=O)C[C@@H]1CO2 [Example 38, 3-[4-((3aR,9bR)-cis-9-Methoxy-1,2,3,3a,4,9b-hexahydro-[1]-benzopyrano[3,4-c]pyrrol-2-yl)butyl]-7-chloro-pyrido[2',3':4,5]thieno[3,2-d]pyrimidine-2,4(1H,3H)-dione hydrochloride]
- Ki [1, 3]: 5.63 nM
- Kb [2]: 0.282 nM

Compound: O=c1[nH]c2c(sc3cccnc32)c(=O)n1CCCCN1C[C@@H]2COc3ccccc3[C@@H]2C1 (racemic) [Example 70, 3-[4-((±)-cis-1,2,3,3a,4,9b-hexahydro-[1]-benzopyrano[3,4-c]pyrrol-2-yl)butyl]-pyrido[2',3':4,5]thieno[3,2-d]pyrimidine-2,4(1H,3H)-dione dihydrochloride]
- Ki [1]: 0.724 nM
- Kb [2]: 6.31 nM

Compound: COc1cccc2c1[C@@H]1CN(CCCCn3c(=O)[nH]c4c(sc5ncc(-c6ccccc6)nc54)c3=O)C[C@H]1CO2 [Example 50, 3-[4-((3aS,9bR)-trans-9-Methoxy-1,2,3,3a,4,9b-hexahydro-[1]-benzopyrano[3,4-c]pyrrol-2-yl)butyl]-8-phenyl-pyrazino[2',3':4,5]thieno[3,2-d]pyrimidine-2,4(1H,3H)-dione hydrochloride]
- Ki [1, 3]: 20.8 nM
- Kb [2]: 0.0447 nM

Compound: COc1cccc2c1[C@@H]1CN(CCCCn3c(=O)[nH]c4c(sc5ncc(Cl)nc54)c3=O)C[C@H]1CO2 [Example 13, 3-[4-((3aS,9bR)-trans-9-Methoxy-1,2,3,3a,4,9b-hexahydro-[1]-benzopyrano[3,4-c]pyrrol-2-yl)butyl]-8-chloro-pyrazino[2',3':4,5]thieno[3,2-d]pyrimidine-2,4(1H,3H)-dione hydrochloride]
- Ki [1, 3]: 2.49 nM
- Kb [2]: 0.158 nM

Compound: COc1cccc2c1[C@@H]1CN(CCCCn3c(=O)[nH]c4c(sc5nc(C)ccc54)c3=O)C[C@H]1CO2 [Example 45, 3-[4-((3aS,9bR)-trans-9-Methoxy-1,2,3,3a,4,9b-hexahydro-[1]-benzopyrano[3,4-c]pyrrol-2-yl)butyl]-7-methyl-pyrido[3',2':4,5]thieno[3,2-d]pyrimidine-2,4(1H,3H)-dione hydrochloride]
- Ki [1, 3]: 1.34 nM
- Kb [2]: 0.257 nM
